Data reported in US12180226B2, “Spirotricycle RIPK1 inhibitors and methods of uses thereof” (Merck Sharp & Dohme LLC, priority 2021, dated 2024).
Structures can show the parent of a compound that is named as a salt.

Target: RIPK1 (recombinant GST-RIPK1 kinase domain, residues 1-327) (Homo sapiens (Human), UniProt Q13546)
Assay: RIPK1-ADP-Glo Enzymatic Assay
Type: biochemical
Details: ADP-Glo; 25 nM GST-RIPK1, 300 μM ATP; assay lower limit ~25 nM; read-out: RIPK1 V0 Ec50
Experimental: RIPK1-ADP-Glo Enzymatic Assay
The enzymatic activity of RIPK1 is measured using an assay derived from ADP-Glo kit (TMPromega), which provides a luminescent-based ADP detection system. Specifically, the ADP generated by RIPK1 kinase is proportionally detected as luminescent signals in a homogenous fashion. In this context, the assessment of the inhibitory effect of small molecules (EC50) is measured by the effectiveness of the compounds to inhibit the ATP to ADP conversion by RIPK1.
In this assay, the potency (EC50) of each compound was determined from a ten-point (1:3 serial dilution; top compound concentration of 100000 nM) titration curve using the following outlined procedure. The assay bottom or lower limit of confidence is ˜25 nM. To each well of a white ProxiPlus 384 well-plate, 30 nL of compound (1% DMSO in final assay volume of 3 μL) was dispensed, followed by the addition of 2 μL of 1×assay buffer (25 mM Hepes 7.3, 20 mM MgCl2, 50 mM NaCl, 1 mM DTT, 0.005% Tween20, and 0.02% BSA) containing 37.5 nM of GST-RIPK1 (recombinant GST-RIPK1 kinase domain (residues 1-327) enzyme produced from baculovirus-transfected Sf21 cells: MW=62 kDa). Plates were placed in an ambient temperature humidified chamber for a 30-minute pre-incubation with compound. Subsequently, each reaction was initiated by the addition of 1 μL 1×assay buffer containing 900 μM ATP and […] dephosphorylated-MBP substrate. The final reaction in each well of 3 μL consists of 25 nM of GST-RIPK1, 300 μM ATP, and 3 μM dephosphorylated-MBP. Kinase reactions were allowed to proceed for 150 minutes prior to adding ADP-Glo reagents per Promega's outlined kit protocol. Dose-response curves were generated by plotting percent effect (% product conversion; Y-axis) vs. Log10 compound concentrations (X-axis). EC50 values were calculated using a non-linear regression, four-parameters sigmoidal dose-response model.

RIPK1 (recombinant GST-RIPK1 kinase domain, residues 1-327), sequence (Q13546 1-327): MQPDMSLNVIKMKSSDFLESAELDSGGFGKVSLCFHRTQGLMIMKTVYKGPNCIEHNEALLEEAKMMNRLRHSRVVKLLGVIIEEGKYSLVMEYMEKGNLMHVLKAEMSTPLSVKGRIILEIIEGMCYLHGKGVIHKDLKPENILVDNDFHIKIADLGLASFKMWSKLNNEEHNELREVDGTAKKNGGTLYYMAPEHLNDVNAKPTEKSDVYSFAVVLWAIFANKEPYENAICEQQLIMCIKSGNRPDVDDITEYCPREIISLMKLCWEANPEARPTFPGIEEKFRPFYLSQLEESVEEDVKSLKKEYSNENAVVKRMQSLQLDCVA

Structure (SMILES)	EC50
N#Cc1ccnc(N2CCC3(CC2)O[C@@H]2CC[C@@H](c4cc(F)cc(F)c4)N2C3=O)n1 [Example 4.12, 2-[(5′S,7a′R)-5′-(3,5-difluorophenyl)-3′-oxotetrahydro-1H,3′H-spiro[piperidine-4,2′-pyrrolo[2,1-b] [1,3]oxazol]-1-yl]pyrimidine-4-carbonitrile]	< 25 nM
O=C(c1cocn1)N1CCC2(CC1)O[C@@H]1CC[C@@H](c3cc(F)cc(F)c3)N1C2=O [Example 5.54, (5′S,7a′R)-5′-(3,5-difluoro-phenyl)-1-(oxazole-4-car-bonyl)tetrahydro-3′H-spiro [piperidine-4,2′-pyrrolo-[2,1-b]oxazol]-3′-one]	27.2 nM
Cc1ccc(C(=O)N2CCC3(CC2)O[C@@H]2CC[C@@H](c4cc(F)cc(F)c4)N2C3=O)cn1 [Example 6.69, (5′S,7a′R)-5′-(3,5-difluorophenyl)-1-(6-methylpyridine-3-carbonyl)tetrahydro-3′H-spiro[piperidine-4,2′-pyrrolo[2,1-b] [1,3]oxazol]-3′-one]	46.8 nM
O=C(c1ccccc1OC(F)F)N1CCC2(CC1)O[C@@H]1CC[C@@H](c3cc(F)cc(F)c3)N1C2=O [Example 6.61, (5′S,7a′R)-1-[2-(difluoromethoxy)-benzene-1-carbonyl]-5′-(3,5-difluorophen-yl)tetrahydro-3′H-spiro[piperidine-4,2′-pyrrolo[2,1-b][1,3]-oxazol]-3′-one]	261 nM
O=C1N2[C@@H](CC[C@H]2c2ccccc2)OC12CCN(c1ccc(-c3ncco3)c3ncnn13)CC2 [Example 4.180, (5′S,7a′R)-1-[8-(1,3-oxazol-2-yl)[1,2,4]triazolo[1,5-a]pyridin-5-yl]-5′-phenyltetrahydro-3′H-spiro[piperidine-4,2′-pyrrolo[2,1-b] [1,3]oxazol]-3′-one]	< 25 nM
Cc1nc(N2CCC3(CC2)O[C@@H]2CC[C@@H](c4ccccc4)N2C3=O)ncc1-c1ncco1 [Example 21.11, (5′S,7a′R)-1-[4-methyl-5-(1,3-oxazol-2-yl)pyrimidin-2-yl]-5′-phenyltetrahydro-3′H-spiro[piperidine-4,2′-pyrrolo[2,1-b][1,3]oxazol]-3′-one]	< 25 nM
Cc1ccccc1[C@@H]1CC[C@H]2OC3(CCN(c4ccnc5c(F)cnn45)CC3)C(=O)N21 [Example 4.255, (5′S,7a′R)-1-(3-fluoropyrazolo[1,5-a]pyrimidin-7-yl)-5′-(2-methylphenyl)tetrahydro-3′H-spiro[piperidine-4,2′-pyrrolo[2,1-b] [1,3]oxazol]-3′-one]	40.3 nM
CC1CC2(CCN1C(=O)c1ccccc1)O[C@@H]1CC[C@@H](c3cc(F)cc(F)c3)N1C2=O (stereo partly drawn) [Example 6.107, (4R,5′S,7a′R)-1-(benzenecarbonyl)-5′-(3,5-difluorophenyl)-2-methyltetrahydro-3′H-spiro[piperidine-4,2′-pyrrolo[2,1-b] [1,3]oxazol]-3′-one]	< 25 nM
O=C(c1cc(F)ccc1F)N1CCC2(CC1)O[C@@H]1CC[C@@H](c3cccc(F)c3)N1C2=O [Example 1.6, (5′S,7a′R)-1-(2,5-difluorobenzene-1-carbonyl)-5′-(3-fluorophenyl)tetrahydro-3′H-spiro[piperidine-4,2′-pyrrolo[2,1-b] [1,3]oxazol]-3′-one]	< 25 nM
Cc1onc(C(=O)N2CCC3(CC2)O[C@@H]2CC[C@@H](c4cc(F)cc(F)c4)N2C3=O)c1C [Example 6.57, (5′S,7a′R)-5′-(3,5-difluorophenyl)-1-(4,5-dimethyl-1,2-oxazole-3-carbonyl) tetrahydro-3′H-spiro [piperidine-4,2′-pyrrolo[2,1-b][1,3]-oxazol]-3′-one]	426 nM
Cc1cnc([C@@H]2CC[C@H]3OC4(CCN(C(=O)c5ccccc5)CC4)C(=O)N32)cn1 [Example 6.143, (5′S,7a′R)-1-(benzene-carbonyl)-5′-(5-meth-ylpyrazin-2-yl)tetra-hydro-3′H-spiro [piperidine-4,2′-pyrrolo[2,1-b][1,3]oxazol]-3′-one]	56.8 nM
O=C1N2[C@@H](CC[C@H]2c2cncc(F)c2)OC12CCN(c1ccnc3c(F)cnn13)CC2 [Example 4.49, (5′S,7a′R)-1-(3-fluoropyrazolo[1,5-a]pyrimidin-7-yl)-5′-(5-fluoropyridin-3-yl)tetrahydro-3′H-spiro[piperidine-4,2′-pyrrolo[2,1-b] [1,3]oxazol]-3′-one]	< 25 nM
Cc1cnc(-c2ccc(N3CCC4(CC3)O[C@@H]3CC[C@@H](c5ccccc5)N3C4=O)n3nccc23)o1 [Example 21.17, (5′S,7a′R)-1-[4-(5-methyl-1,3-oxazol-2-yl)pyrazolo[1,5-a]pyridin-7-yl]-5′-phenyltetrahydro-3′H-spiro[piperidine-4,2′-pyrrolo[2,1-b][1,3]oxazol]-3′-one]	< 25 nM
O=C(c1ccnc(C(F)(F)F)c1F)N1CCC2(CC1)O[C@@H]1CC[C@@H](c3cc(F)cc(F)c3)N1C2=O [Example 6.74, (5′S,7a′R)-5′-(3,5-difluorophenyl)-1-[3-fluoro-2-(trifluoro-methyl)pyridine-4-carbonyl]tetrahydro-3′H-spiro[piperidine-4,2′-pyrrolo[2,1-b] [1,3]oxazol]-3′-one]	31.9 nM
O=C1N2[C@@H](CC[C@H]2c2cc(F)cc(F)c2)OC12CCN(c1ccc(Cl)c3ncnn13)CC2 [Example 15.4, (5′S,7a′R)-1-(8-chloro-[1,2,4]triazolo[1,5-a]pyridin-5-yl)-5′-(3,5-difluorophenyl)tetrahydro-3′H-spiro[piperidine-4,2′-pyrrolo[2,1-b]oxazol]-3′-one, TFA salt]	< 25 nM
N#Cc1ccc(F)c(C(=O)N2CCC3(CC2)O[C@@H]2CC[C@@H](c4ccccc4)N2C3=O)c1 [Example 6.148]	< 25 nM
O=C1N2[C@@H](CC[C@H]2c2ccccc2F)OC12CCN(c1cc(Cl)ncn1)CC2 [Example 4.99, (5′S,7a′R)-1-(6-chloropyrimidin-4-yl)-5′-(2-fluorophenyl)tetrahydro-3′H-spiro[piperidine-4,2′-pyrrolo[2,1-b]oxazol]-3′-one]	< 25 nM
Cc1ncc([C@@H]2CC[C@H]3OC4(CCN(c5ccnc6c(F)cnn56)CC4F)C(=O)N32)cc1F (stereo partly drawn) [Example 4.131, (5′S,7a′R)-3-fluoro-5′-(5-fluoro-6-methylpyridin-3-yl)-1-(3-fluoropyrazolo[1,5-a]pyrimidin-7-yl)tetrahydro-3′H-spiro[piperidine-4,2′-pyrrolo[2,1-b] [1,3]oxazol]-3′-one]	30.6 nM
Cn1ccc(C(=O)N2CCC3(CC2)O[C@@H]2CC[C@@H](c4cc(F)cc(F)c4)N2C3=O)c1 [Example 5.47, (5′S,7a′R)-5′-(3,5-difluoro-phenyl)-1-(1-methyl-1H-pyrrole-3-carbonyl)tetra-hydro-3′H-spiro[piperidine-4,2′-pyrrolo[2,1-b]oxazol]-3′-one]	26.9 nM
O=C1N2[C@@H](CC[C@H]2c2ccccc2)OC12CCN(c1ccc(Cl)c3ncnn13)CC2 [Example 15.3, (5′S,7a′R)-1-(8-chloro-[1,2,4]triazolo[1,5-a]pyridin-5-yl)-5′-phenyltetrahydro-3′H-spiro[piperidine-4,2′-pyrrolo[2,1-b]oxazol]-3′-one, TFA salt]	< 25 nM
CC1CN(C(=O)c2ccccc2)CCC12O[C@@H]1CC[C@@H](c3cc(F)cc(F)c3)N1C2=O (stereo partly drawn) [Example 6.110, (5′S,7a′R)-1-(benzene-carbonyl)-5′-(3,5-difluorophenyl)-3-methyltetrahydro-3′H-spiro[piperidine-4,2′-pyrrolo[2,1-b][1,3]-oxazol]-3′-one]	< 25 nM
